Reference: article PMC4503722, “Novel Phenotypic Outcomes Identified for a Public Collection of Approved Drugs from a Publicly Accessible Panel of Assays” (PLoS ONE, 2015)
Read-outs that look alike come from different tables or passages of the source.

Legend:
INS-1E cells [1] = test: cells; assay type: cell-based, rat
INS-1E cells [2] = assay type: cell-based, rat
hGSK3b = target: T1, hGSK3b (Homo sapiens, UniProt P49841); test: Cerep LANCE kinase assay hGSK3b (S1 assay 34); assay type: biochemical
T1 construct: purchased Cerep (LANCE kinase assay platform, contract assay)

hKDR = target: T2, hKDR (Homo sapiens, UniProt P35968); test: Cerep LANCE kinase assay hKDR (S1 assay 32); assay type: biochemical
T2 construct: purchased Cerep (LANCE kinase assay platform, contract assay)

[3] = test system: nuclear β-catenin in C2C12 cells; test: cells; assay type: cell-based; conditions: concentration response
STC-1 cell line = assay type: cell-based, mouse; conditions: concentration response
Colo320 = test: cells; assay type: cell-based; conditions: basal
hFLT3 = target: T3, hFLT3 (Homo sapiens, UniProt P36888); test: Cerep LANCE kinase assay hFLT3 (S1 assay 35); assay type: biochemical
T3 construct: purchased Cerep (LANCE kinase assay platform, contract assay)

hp70S6K1 (RPS6KB1) = target: T4, hp70S6K1 (RPS6KB1) (Homo sapiens, UniProt P23443); test: Cerep LANCE kinase assay hp70S6K1 (S1 assay 31); assay type: biochemical
T4 construct: purchased Cerep (LANCE kinase assay platform, contract assay)

HT-29 = test: cells; assay type: cell-based
[4] = test system: alkaline phosphatase (ALP) activity in C2C12 cells; assay type: cell-based; conditions: concentration response
NCI-H716 cells = test: cells; assay type: cell-based, Human; conditions: concentration response
HCT116 = test: cells; assay type: cell-based
RKO = test: cells; assay type: cell-based
SNU-C1 = test: cells; assay type: cell-based
SW480 = test: cells; assay type: cell-based
[5] = test system: ECFC/ADSC co-culture cell nuclei number
HeLa cells = test: cells; assay type: cell-based
[6] = test system: endothelial tube formation in co-cultures of ECFCs and ADSCs treated with VEGF; test: cells; assay type: cell-based, human
DLD-1 = test: cells; assay type: cell-based
hJAK2 = target: T5, hJAK2 (Homo sapiens, UniProt O60674); test: Cerep LANCE kinase assay hJAK2 (S1 assay 33); assay type: biochemical
T5 construct: purchased Cerep (LANCE kinase assay platform, contract assay)

[7] = test system: HCT116 cells treated with a GSK3β inhibitor; test: cells; assay type: cell-based
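For 5mMGluc INS1E SecretionMod IC50/EC50 in this document: secreted insulin quantified by homogeneous immunoassay.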
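For IC50/EC50, 5mMGluc INS1E SecretionMod (assay number 8) in this document: secreted insulin quantified by homogeneous immunoassay.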

T1 sequence (P49841 whole entry): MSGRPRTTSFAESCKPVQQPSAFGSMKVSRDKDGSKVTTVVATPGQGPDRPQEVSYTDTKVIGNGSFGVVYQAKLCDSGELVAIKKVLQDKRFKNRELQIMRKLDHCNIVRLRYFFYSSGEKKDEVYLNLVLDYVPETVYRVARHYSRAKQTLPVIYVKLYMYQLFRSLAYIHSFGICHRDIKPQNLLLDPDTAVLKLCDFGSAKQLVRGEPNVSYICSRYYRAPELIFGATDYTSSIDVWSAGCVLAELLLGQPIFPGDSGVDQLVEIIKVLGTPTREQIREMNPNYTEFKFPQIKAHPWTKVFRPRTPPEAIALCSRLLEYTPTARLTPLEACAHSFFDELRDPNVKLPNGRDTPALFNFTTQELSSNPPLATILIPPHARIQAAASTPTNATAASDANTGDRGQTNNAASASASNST
T4 sequence (P23443 whole entry): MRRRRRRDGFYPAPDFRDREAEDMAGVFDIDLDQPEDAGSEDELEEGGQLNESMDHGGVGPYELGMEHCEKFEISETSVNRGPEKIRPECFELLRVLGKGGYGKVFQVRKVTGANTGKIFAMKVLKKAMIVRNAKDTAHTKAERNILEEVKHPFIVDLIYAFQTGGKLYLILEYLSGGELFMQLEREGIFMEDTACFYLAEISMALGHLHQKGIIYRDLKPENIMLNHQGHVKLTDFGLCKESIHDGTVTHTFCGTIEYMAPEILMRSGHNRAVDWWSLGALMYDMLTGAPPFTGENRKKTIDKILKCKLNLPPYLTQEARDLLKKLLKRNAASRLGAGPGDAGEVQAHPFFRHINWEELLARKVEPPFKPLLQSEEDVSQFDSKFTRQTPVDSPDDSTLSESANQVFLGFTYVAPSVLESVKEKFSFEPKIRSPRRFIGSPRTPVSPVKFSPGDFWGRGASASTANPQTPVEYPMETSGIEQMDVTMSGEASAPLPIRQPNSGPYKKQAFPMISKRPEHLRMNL
T3 sequence (P36888 27-993): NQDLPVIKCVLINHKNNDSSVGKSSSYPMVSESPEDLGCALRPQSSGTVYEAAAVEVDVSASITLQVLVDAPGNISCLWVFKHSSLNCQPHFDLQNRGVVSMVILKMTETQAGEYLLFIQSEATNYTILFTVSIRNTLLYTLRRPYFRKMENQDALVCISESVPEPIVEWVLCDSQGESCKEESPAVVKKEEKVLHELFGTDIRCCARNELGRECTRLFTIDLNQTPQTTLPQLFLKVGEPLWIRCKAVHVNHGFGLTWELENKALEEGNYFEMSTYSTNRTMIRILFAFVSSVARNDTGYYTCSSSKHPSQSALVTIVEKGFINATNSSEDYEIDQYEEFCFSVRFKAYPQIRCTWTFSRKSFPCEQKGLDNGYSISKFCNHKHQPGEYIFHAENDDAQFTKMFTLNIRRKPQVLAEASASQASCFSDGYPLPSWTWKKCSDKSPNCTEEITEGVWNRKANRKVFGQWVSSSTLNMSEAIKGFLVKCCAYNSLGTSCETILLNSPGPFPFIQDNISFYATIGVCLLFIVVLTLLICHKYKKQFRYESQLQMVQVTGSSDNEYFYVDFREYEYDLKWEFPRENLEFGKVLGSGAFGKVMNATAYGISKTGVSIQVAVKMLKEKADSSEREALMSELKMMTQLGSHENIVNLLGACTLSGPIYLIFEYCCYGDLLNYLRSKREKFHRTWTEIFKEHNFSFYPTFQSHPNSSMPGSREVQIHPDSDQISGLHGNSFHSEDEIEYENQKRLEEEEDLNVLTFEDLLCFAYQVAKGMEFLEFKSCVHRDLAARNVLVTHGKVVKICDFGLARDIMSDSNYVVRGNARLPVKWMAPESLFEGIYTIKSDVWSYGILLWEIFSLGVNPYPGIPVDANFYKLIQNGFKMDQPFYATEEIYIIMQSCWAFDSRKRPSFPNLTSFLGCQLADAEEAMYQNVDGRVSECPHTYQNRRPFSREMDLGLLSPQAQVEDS
T2 sequence (P35968 20-1356): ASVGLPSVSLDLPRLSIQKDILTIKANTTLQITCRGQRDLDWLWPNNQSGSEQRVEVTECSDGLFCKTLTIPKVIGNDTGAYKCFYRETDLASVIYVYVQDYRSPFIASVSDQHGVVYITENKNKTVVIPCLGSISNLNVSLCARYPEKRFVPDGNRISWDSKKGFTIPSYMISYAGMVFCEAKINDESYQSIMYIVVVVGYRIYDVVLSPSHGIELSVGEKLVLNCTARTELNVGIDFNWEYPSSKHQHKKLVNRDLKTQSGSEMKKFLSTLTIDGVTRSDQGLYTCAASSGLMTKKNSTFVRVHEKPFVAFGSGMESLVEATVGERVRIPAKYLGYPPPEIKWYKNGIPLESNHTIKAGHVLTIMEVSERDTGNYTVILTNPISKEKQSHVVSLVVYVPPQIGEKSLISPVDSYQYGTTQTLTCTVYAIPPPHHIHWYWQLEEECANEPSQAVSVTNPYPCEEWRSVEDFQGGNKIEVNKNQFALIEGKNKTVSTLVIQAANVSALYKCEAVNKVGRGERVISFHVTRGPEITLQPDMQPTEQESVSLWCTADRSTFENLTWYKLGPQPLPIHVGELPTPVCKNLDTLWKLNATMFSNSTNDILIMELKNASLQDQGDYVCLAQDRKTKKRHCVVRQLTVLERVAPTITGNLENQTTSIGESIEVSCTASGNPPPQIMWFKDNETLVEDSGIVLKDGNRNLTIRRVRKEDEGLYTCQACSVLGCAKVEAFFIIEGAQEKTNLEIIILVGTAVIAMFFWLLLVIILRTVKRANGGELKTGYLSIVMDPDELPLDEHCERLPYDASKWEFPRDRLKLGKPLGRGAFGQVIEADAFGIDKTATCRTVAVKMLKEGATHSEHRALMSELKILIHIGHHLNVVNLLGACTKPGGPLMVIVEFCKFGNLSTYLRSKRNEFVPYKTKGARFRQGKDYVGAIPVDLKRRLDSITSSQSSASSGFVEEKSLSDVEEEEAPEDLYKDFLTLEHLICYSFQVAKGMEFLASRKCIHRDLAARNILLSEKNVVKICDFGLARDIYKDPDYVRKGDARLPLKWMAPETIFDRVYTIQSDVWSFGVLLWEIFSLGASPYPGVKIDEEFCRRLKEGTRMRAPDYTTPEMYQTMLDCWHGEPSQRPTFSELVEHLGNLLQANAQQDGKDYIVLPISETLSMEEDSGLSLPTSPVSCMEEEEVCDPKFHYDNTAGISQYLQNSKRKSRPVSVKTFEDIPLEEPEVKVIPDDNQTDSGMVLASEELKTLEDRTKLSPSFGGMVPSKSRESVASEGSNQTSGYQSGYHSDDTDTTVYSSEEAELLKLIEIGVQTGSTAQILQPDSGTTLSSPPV
T5 sequence (O60674 whole entry): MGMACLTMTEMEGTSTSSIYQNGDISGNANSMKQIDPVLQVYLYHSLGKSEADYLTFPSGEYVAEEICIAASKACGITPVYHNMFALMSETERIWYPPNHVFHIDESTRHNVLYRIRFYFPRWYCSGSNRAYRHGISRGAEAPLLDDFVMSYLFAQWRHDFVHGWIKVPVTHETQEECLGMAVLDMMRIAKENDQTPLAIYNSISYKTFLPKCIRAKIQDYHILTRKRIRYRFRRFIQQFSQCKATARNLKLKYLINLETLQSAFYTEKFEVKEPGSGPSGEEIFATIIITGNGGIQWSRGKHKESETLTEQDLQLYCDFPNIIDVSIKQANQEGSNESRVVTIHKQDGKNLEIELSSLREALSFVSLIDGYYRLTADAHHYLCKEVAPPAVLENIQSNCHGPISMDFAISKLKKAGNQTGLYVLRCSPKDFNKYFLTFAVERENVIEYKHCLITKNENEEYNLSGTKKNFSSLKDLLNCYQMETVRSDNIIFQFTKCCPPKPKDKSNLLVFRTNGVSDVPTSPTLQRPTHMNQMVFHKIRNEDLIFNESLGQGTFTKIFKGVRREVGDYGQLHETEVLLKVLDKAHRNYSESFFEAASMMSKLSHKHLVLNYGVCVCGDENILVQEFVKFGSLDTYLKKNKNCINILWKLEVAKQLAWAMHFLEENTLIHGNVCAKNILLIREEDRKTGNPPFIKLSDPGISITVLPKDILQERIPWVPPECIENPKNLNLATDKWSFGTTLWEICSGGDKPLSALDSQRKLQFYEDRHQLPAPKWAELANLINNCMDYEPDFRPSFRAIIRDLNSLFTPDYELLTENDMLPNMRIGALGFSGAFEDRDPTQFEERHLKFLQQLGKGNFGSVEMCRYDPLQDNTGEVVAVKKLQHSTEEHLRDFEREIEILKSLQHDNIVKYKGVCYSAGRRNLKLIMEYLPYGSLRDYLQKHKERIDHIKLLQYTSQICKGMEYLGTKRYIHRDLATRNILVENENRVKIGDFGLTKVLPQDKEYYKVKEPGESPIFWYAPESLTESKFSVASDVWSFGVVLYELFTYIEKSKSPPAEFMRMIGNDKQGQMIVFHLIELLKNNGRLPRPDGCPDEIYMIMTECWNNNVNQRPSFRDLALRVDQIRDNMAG

Structure (SMILES): Nc1c2c(nc3ccccc13)CCCC2 [NCGC00015054-12]
- 5mMGluc_INS1E SecretionMod IC50/EC50 (INS-1E cells [1]; assay number 8, 5 mM glucose): 17.6112 µM
- 0.1mMGluc_INS1E SecretionMod Act IC50/EC50 (INS-1E cells [2]; assay number 9, 0.1 mM glucose): > 33.33 µM

Structure (SMILES): CN(C)CC[C@@H](c1ccc(Br)cc1)c1ccccn1.O=C(O)/C=C\C(=O)O [NCGC00015146-11]
- 5mMGluc_INS1E SecretionMod IC50/EC50 (INS-1E cells [1]; assay number 8, 5 mM glucose): 3.76 µM
- 0.1mMGluc_INS1E SecretionMod Act IC50/EC50 (INS-1E cells [2]; assay number 9, 0.1 mM glucose): 6.368 µM

Structure (SMILES): c1cc(CN2CCCCC2)cc(OCCCNc2nc3ccccc3s2)c1 [NCGC00015957-06]
- 5mMGluc_INS1E SecretionMod IC50/EC50 (INS-1E cells [1]; assay number 8, 5 mM glucose): > 11.11 µM
- 0.1mMGluc_INS1E SecretionMod Act IC50/EC50 (INS-1E cells [2]; assay number 9, 0.1 mM glucose): > 33.33 µM

Structure (SMILES): NC(=NCCCCCCN=C(N)/N=C(\N)Nc1ccc(Cl)cc1)/N=C(\N)Nc1ccc(Cl)cc1 [NCGC00016246-09]
- IC50/EC50, hGSK3b LANCE (assay number 34) (hGSK3b): > 20 µM
- IC50/EC50, 5mMGluc_INS1E SecretionMod (assay number 8) (INS-1E cells [1]; 5 mM glucose): 25.1792 µM
- IC50/EC50, hKDR LANCE (assay number 32) (hKDR): > 20 µM
- IC50/EC50, WntCondMedia_bCatenin C2C12 (assay number 5) [3]: > 20 µM
- IC50/EC50, mSTC-1 GLP1 Secretion (assay number 13) (STC-1 cell line): 10.3287 µM
- IC50/EC50, Basal_Viability ATP Colo 320 (assay number 27) (Colo320): 5.1631 µM
- IC50/EC50, hFLT3 LANCE (assay number 35) (hFLT3): > 20 µM
- IC50/EC50, hp70S6K1 LANCE (assay number 31) (hp70S6K1 (RPS6KB1)): > 20 µM
- IC50/EC50, Basal_Viability ATP HT-29 (assay number 28) (HT-29; basal): 3.7852 µM
- IC50/EC50, WntCondMedia_Alk Phos C2C12 (assay number 6) [4]: > 20 µM
- IC50/EC50, hNCI-H716 GLP1 Secretion (assay number 12) (NCI-H716 cells): 26.2027 µM
- IC50/EC50, Basal_Viability ATP HCT116 (assay number 25) (HCT116; basal): 4.3853 µM
- IC50/EC50, Basal_Viability ATP RKO (assay number 29) (RKO; basal): 4.5801 µM
- IC50/EC50, Basal_Viability ATP SNU-C1 (assay number 30) (SNU-C1; basal): 0.4386 µM
- IC50/EC50, Basal_Viability ATP SW480 (assay number 24) (SW480; basal): 5.6664 µM
- IC50/EC50, VEGF_ADSC\ECFC Angio Hoechst NucArea (assay number 3) [5]: > 10 µM
- IC50/EC50, Hela CellCycMod PI 2N (assay number 14) (HeLa cells; 2N): > 10 µM
- IC50/EC50, Hela CellCycMod PI 4N (assay number 16) (HeLa cells; 4N): > 10 µM
- IC50/EC50, Hela CellCycMod PI Cell Number (assay number 18) (HeLa cells; Cell Number): 6.7072 µM
- IC50/EC50, Hela CellCycMod PI MI (assay number 17) (HeLa cells; MI): > 10 µM
- IC50/EC50, VEGF_ADSC\ECFC Angio CD31 TubeArea (assay number 2) [6]: 1.3455 µM
- IC50/EC50, Basal_Viability ATP DLD-1 (assay number 23) (DLD-1; basal): 2.8031 µM
- IC50/EC50, hJAK2 LANCE (assay number 33) (hJAK2): > 20 µM

Structure (SMILES): Cl.N[C@@H]1C[C@H]1c1ccccc1 [NCGC00016598-02]
- 5mMGluc_INS1E SecretionMod IC50/EC50 (INS-1E cells [1]; assay number 8, 5 mM glucose): > 33.33 µM
- 0.1mMGluc_INS1E SecretionMod Act IC50/EC50 (INS-1E cells [2]; assay number 9, 0.1 mM glucose): > 33.33 µM

Structure (SMILES): COc1cc(C(=O)OCCCN2CCCN(CCCOC(=O)c3cc(OC)c(OC)c(OC)c3)CC2)cc(OC)c1OC [NCGC00016747-07]
- 5mMGluc_INS1E SecretionMod IC50/EC50 (INS-1E cells [1]; assay number 8, 5 mM glucose): 10.1571 µM
- 0.1mMGluc_INS1E SecretionMod Act IC50/EC50 (INS-1E cells [2]; assay number 9, 0.1 mM glucose): 18.0188 µM

Structure (SMILES): CCOc1cc(CC(=O)N[C@@H](CC(C)C)c2ccccc2N2CCCCC2)ccc1C(=O)O [NCGC00016978-04]
- 5mMGluc_INS1E SecretionMod IC50/EC50 (INS-1E cells [1]; assay number 8, 5 mM glucose): 0.02704 µM
- 0.1mMGluc_INS1E SecretionMod Act IC50/EC50 (INS-1E cells [2]; assay number 9, 0.1 mM glucose): 0.1358 µM

Structure (SMILES): CSc1ccc2c(c1)C(N1CCN(C)CC1)Cc1ccccc1S2 (centres unmarked) [NCGC00024665-10]
- hGSK3b LANCE IC50/EC50 (hGSK3b; assay number 34): > 20 µM
- 5mMGluc_INS1E SecretionMod IC50/EC50 (INS-1E cells [1]; assay number 8, 5 mM glucose): 2.944 µM
- hKDR LANCE IC50/EC50 (hKDR; assay number 32): > 20 µM
- 0.1mMGluc_INS1E SecretionMod Act IC50/EC50 (INS-1E cells [2]; assay number 9, 0.1 mM glucose): > 33.33 µM
- WntCondMedia_bCatenin C2C12 IC50/EC50 ([3]; assay number 5): > 20 µM
- hFLT3 LANCE IC50/EC50 (hFLT3; assay number 35): > 20 µM
- hp70S6K1 LANCE IC50/EC50 (hp70S6K1 (RPS6KB1); assay number 31): > 20 µM
- WntCondMedia_Alk Phos C2C12 IC50/EC50 ([4]; assay number 6): > 20 µM
- VEGF_ADSC\ECFC Angio Hoechst NucArea IC50/EC50 [5]: > 10 µM
- Hela CellCycMod PI 2N IC50/EC50 (HeLa cells; assay number 14, 2N): > 10 µM
- Hela CellCycMod PI 4N IC50/EC50 (HeLa cells; assay number 16, 4N): > 10 µM
- Hela CellCycMod PI MI IC50/EC50 (HeLa cells; assay number 17, MI): > 10 µM
- Hela CellCycMod PI Cell Number IC50/EC50 (HeLa cells; assay number 18, cell number): > 10 µM
- VEGF_ADSC\ECFC Angio CD31 TubeArea IC50/EC50 [6]: > 10 µM
- hJAK2 LANCE IC50/EC50 (hJAK2; assay number 33): > 20 µM

Structure (SMILES): CN1CCc2cc(Cl)c(O)cc2[C@H]2c3ccccc3CC[C@@H]21 [NCGC00092362-02]
- 5mMGluc_INS1E SecretionMod IC50/EC50 (INS-1E cells [1]; assay number 8, 5 mM glucose): 15.3649 µM
- 0.1mMGluc_INS1E SecretionMod Act IC50/EC50 (INS-1E cells [2]; assay number 9, 0.1 mM glucose): > 33.33 µM

Structure (SMILES): Cc1c(C)n(Cc2ccccc2)c2ccc(C(=O)OCCN(C)C)cc12 [NCGC00160412-04]
- 5mMGluc_INS1E SecretionMod IC50/EC50 (INS-1E cells [1]): 3.845 µM
- 0.1mMGluc_INS1E SecretionMod Act IC50/EC50 (INS-1E cells [2]): 14.9139 µM
- GSK3b inh pretreated_Viability ATP HCT116 IC50/EC50 [7]: 5.474 µM
- Basal_Viability ATP HT-29 IC50/EC50 (HT-29): > 6.6667 µM
- Basal_Viability ATP HCT116 IC50/EC50 (HCT116): 11.7611 µM
- Basal_Viability ATP RKO IC50/EC50 (RKO): 12.7694 µM
- Basal_Viability ATP SNU-C1 IC50/EC50 (SNU-C1): 11.9645 µM
- Basal_Viability ATP SW480 IC50/EC50 (SW480): 8.7786 µM
- Basal_Viability ATP DLD-1 IC50/EC50 (DLD-1): 11.2721 µM

Structure (SMILES): CCN(CC)CCNC(C(=O)OCCC(C)C)c1ccccc1 (centres unmarked) [NCGC00164526-02]
- 5mMGluc_INS1E SecretionMod IC50/EC50 (INS-1E cells [1]; assay number 8, 5 mM glucose): 24.7717 µM
- 0.1mMGluc_INS1E SecretionMod Act IC50/EC50 (INS-1E cells [2]; assay number 9, 0.1 mM glucose): > 33.33 µM

Structure (SMILES): C#CCOC(C(=O)OCCN(C)C)(c1ccccc1)c1ccccc1 [NCGC00164558-02]
- 5mMGluc_INS1E SecretionMod IC50/EC50 (INS-1E cells [1]; assay number 8, 5 mM glucose): 9.257 µM
- 0.1mMGluc_INS1E SecretionMod Act IC50/EC50 (INS-1E cells [2]; assay number 9, 0.1 mM glucose): 9.666 µM
